Patent publication US12678490B2, “Pharmaceutical combinations comprising insulin and at least an agent selected from meloxicam, bromfenac sodium, acetylsalicylic acid, salicyclic acid and paracetamol” (Eli Lilly and Company, priority 2017, dated 2026)

What was measured:
plasma glucose = assay: Pre-clinical in vivo CSII model, local or oral dexamethasone with insulin lispro bolus; set-up: species or system Yucatan mini pigs; settings: for Baseline-adjusted area under the curve for plasma glucose over the 6 hours following an insulin bolus: 0.15 U/kg U100 insulin lispro bolus, mean ± SEM; for improving infusion site viability: local delivery, 0.25 mg/h (6 mg/d)
[1] = Insulin lispro co-formulation stability, main peak loss and HMWP growth by analytical RP-HPLC; assay type: physicochemical; settings: co-formulated with insulin lispro, 37° C.
Experimental: Two separate formulations are prepared as described above with 20 mM acetylsalicylic acid or 90 mM paracetamol; however, the m-cresol is excluded from the formulation. All samples are adjusted with water to achieve the final concentrations. […] All samples are filtered using 0.22 um syringe filter ([…]). […] The samples are visibly inspected for particulate or precipitation throughout study. Insulin lispro main peak loss and HMWP growth are tracked over time using HPLC. […] The UV detector is set to 214 nm wavelength, column temperature to 40° C., flowrate to 1 mL/min, and injection volume to 5 uL of each formulation. […] The data is collected and slope analysis of rate of change per day is performed using Y by X plots using commercial software.

C[C@@H]1C[C@H]2[C@@H]3CCC4=CC(=O)C=C[C@]4(C)[C@@]3(F)[C@@H](O)C[C@]2(C)[C@@]1(O)C(=O)CO [Dexamethasone, (8S,9R,10S,11S,13S,14S,16R,17R)-9-fluoro-11,17-dihydroxy-17-(2-hydroxyacetyl)-10,13,16-trimethyl-6,7,8,11,12,14,15,16-octahydrocyclopenta[a]phenanthren-3-one]
Baseline-adjusted area under the curve for plasma glucose over the 6 hours following an insulin bolus (plasma glucose; Oral: 25 uL/h insulin placebo + twice daily oral 3 mg dexamethasone, day 0): −14218 ± 754
Baseline-adjusted area under the curve for plasma glucose over the 6 hours following an insulin bolus (plasma glucose; Oral: 25 uL/h insulin placebo + twice daily oral 3 mg dexamethasone, day 3): −5265 ± 2130
Baseline-adjusted area under the curve for plasma glucose over the 6 hours following an insulin bolus (plasma glucose; Oral: 25 uL/h insulin placebo + twice daily oral 3 mg dexamethasone, day 5): −8109 ± 987
Baseline-adjusted area under the curve for plasma glucose over the 6 hours following an insulin bolus (plasma glucose; Oral: 25 uL/h insulin placebo + twice daily oral 3 mg dexamethasone, day 7): −7750 ± 1491
Baseline-adjusted area under the curve for plasma glucose over the 6 hours following an insulin bolus (plasma glucose; Oral: 25 uL/h insulin placebo + twice daily oral 3 mg dexamethasone, day 10): −4266 ± 1551
Baseline-adjusted area under the curve for plasma glucose over the 6 hours following an insulin bolus (plasma glucose; Subcutaneous: continuous infusion of 0.25 mg/h dexamethasone, day 0): −16700 ± 2027
Baseline-adjusted area under the curve for plasma glucose over the 6 hours following an insulin bolus (plasma glucose; Subcutaneous: continuous infusion of 0.25 mg/h dexamethasone, day 3): −12591 ± 873
Baseline-adjusted area under the curve for plasma glucose over the 6 hours following an insulin bolus (plasma glucose; Subcutaneous: continuous infusion of 0.25 mg/h dexamethasone, day 5): −12297 ± 755
Baseline-adjusted area under the curve for plasma glucose over the 6 hours following an insulin bolus (plasma glucose; Subcutaneous: continuous infusion of 0.25 mg/h dexamethasone, day 7): −7149 ± 1555
Baseline-adjusted area under the curve for plasma glucose over the 6 hours following an insulin bolus (plasma glucose; Subcutaneous: continuous infusion of 0.25 mg/h dexamethasone, day 10): −4893 ± 775
improving infusion site viability (plasma glucose): up to 5 days
improving infusion site viability (plasma glucose; listed as dexamethosone): 5 days
effect on infusion site viability (plasma glucose; orally delivered): no effect

CC(=O)Nc1ccc(O)cc1 [paracetamol, N-(4-hydroxypehnyl)acetamide]
impact on insulin lispro stability [1]: minimal impact on insulin lispro stability

CC(=O)Oc1ccccc1C(=O)O [acetylsalicylic acid, 2-acetoxybenzoic acid]
impact on insulin lispro stability [1]: minimal impact on insulin lispro stability
